The values below come from patent US3997530A, “Substituted enaminoketones” (American Cyanamid Company, priority 1976, dated 1976).

“And” between values parts separate entries of the source, which are not always exact repeats. Equal values may be shown once.

The nature of series [1]: "writhing syndrome" test for analgesic activity (phenyl-p-quinone). Type of series: in vivo, male Swiss albino mice. Particulars: 100 mg./kg. oral, 30 minutes before phenyl-p-quinone; 3 minute count commencing 15 minutes after; control approximately 30 per pair; active if 18 or less. From the text: The substituted enaminoketones of the present invention are active analgesics when measured by the "writhing syndrome" test for analgesic activity as described by Siegmund, et al., Proc. Soc. Exp. Bio. and Med., 95, 729 (1957), with modifications. This method is based upon the reduction of the number of writhes following the intraperitoneal injection of one mg./kg. of body weight of phenyl-p-quinone in male Swiss albino mice weighing 18-25 gm. The syndrome is characterized by intermittent contractions of the abdomen, twisting and turning of the trunk, and extension of the hind legs beginning 3 to 5 minutes after injection of the phenyl-p-quinone. The test compounds are administered orally at the indicated dose to groups of 2 mice each, 30 minutes before injection of the phenyl-p-quinone. […] A compound is considered active if it reduces the total number of writhes in 2 test mice from a control value of approximately 30 pair to a value of 18 or less. Table I summarized the results of this test on representative compounds of this invention.

The nature of series [2]: Water solubility of salts. Format: physicochemical.
The nature of series [3]: Walking gait test in rats with yeast-inflamed paw (modified Atkinson and Cowan). Type of series: in vivo, male, albino Wistar strain rats. Particulars: oral by gavage, dose producing 50% reversal of the pre-dose gait score, one and/or two hours post-drug. The procedure: Atkinson and A. Cowan, J. Pharm. Pharmac, 26, 727 (1974).
In this test male, albino Wistar strain rats from Royalhart farms, weighing 120-150 g. are deprived of food for about 20 hours. A 40% suspension of brewers' yeast in physiological saline is injected, at a concentration of 0.25 ml/rat into the plantar surface of the left hind paw of each rat. 3 hours later, at which time an inflammation of the injected paw has developed, a pre-drug assessment of walking gait is made for each rat according to the following scoring system:
0 = Normal gait in the presence of a severely inflammed paw. There is continuous use of the foot pad.
0.5 = As above with intermittent mild limping.
1.0 = Constant limping, but continuous use of the foot pad.
1.5 = Limping with occasional three-legged gait (paw kept off walking surface) or intermittent use of digits in combination with foot pad.
2.0 = Continuous three-legged gait and/or only the tips of the digits touch the walking surface. There is no use of foot pad.
Compounds, in a suitable vehicle, are administered orally by gavage in a volume of 0.5 ml./100 g. of body weight. One and/or two hours later a post-drug assessment of walking gait is made as described above. The criterion of an analgesic response for each rat is a 50% reversal of the abnormal gait score (post-drug) from the pre-drug score. […]

Series [4] in a line: Antipyretic activity, brewers' yeast-induced hyperthermia (modified Teotino et al.). Format: in vivo, rats. The procedure:
The compounds of this invention also show antipyretic activity by their ability to reduce a hyperthermic response in warm-blooded animals, e.g., rats, induced by the subcutaneous injection of a suspension of brewers' yeast. This is a modification of the method described by Teotino, et al., J. Med. Chem. 6, 248 (1963). A 40% suspension of brewer's yeast in distilled water is administered to groups of five to ten rats subcutaneously (1.0 ml./100 g. of body weight). Eighteen hours later, rectal temperatures are recorded and compounds, control vehicle (2% starch suspension) or aspirin is administered. Rectal temperatures are recorded 4 hours later and the results are compared with the starch treated controls and with aspirin, a reference antipyretic agent.

Series [5] in a line: Brewer's Yeast Pressure Pain Test (modified Randall and Selitto). Type of series: in vivo, rats. The procedure: To determine analgesic activity, a modification of the method of Randall and Selitto [Arch. int. Pharmacodyn., 111, 409 (1957)] is used. This test measures the pain threshold of rats whose paws are made sensitive to pressure by the injection of a 20% aqueous suspension (0.1 ml.) of brewers' yeast into the plantar surface of the left hind paw. Constantly increasing force (16 grams/second) is applied to the swollen paw using an Analgesy Meter, Ugo Basile. The pressure is cut off at 250 grams of force when there is no response (sudden struggle or vocalization). Control rats treated with the starch vehicle response to a pressure or force of about 30 grams. Pressure-pain thresholds are always recorded 2 hours after brewers' yeast. Analgesic agents are administered at the same time as the yeast, at a dose of 200 mg./kg. orally. Ratios of treated (T)/control (C) reaction thresholds are calculated as estimates of analgesic efficacy (degree of analgesia attainable). Potency is regarded as the dose necessary to produce a given level of analgesia (i.e. 100% elevation of pain threshold is T/C=2.0).

Regarding `NC(=CC(=O)c1cnccn1)C1CC1` [1-amino-1-cyclopropyl-3-(2-pyrazinyl)-1-propen-3-one], the “No. of writhes per pair” value in series [1] was found to be 3.8. Take `c1cncc(-c2cc(C3CC3)no2)c1` [3-(3-cyclopropyl-5-isoxazolyl)pyridine]: the water solubility result in series [2] (sulfate salt) is “water soluble”. On to `c1cncc(-c2cc(C3CC3)on2)c1` [3-(5-cyclopropyl-3-isoxazolyl)pyridine], for which, in series [2] (acetate salt), the solubility entry is given as “slightly soluble”. For the compound `NC(=CC(=O)c1cccnc1)C1CC1` [3-amino-3-cyclopropyl-1-(3-pyridyl)-2-propen-1-one], the ED50 (in general, the dose at which the effect has come halfway, by size or by number of responders) in series [3] (Rattus norvegicus, po, 2 h, read-out: ED50) is 27 mg/kg; in series [3], 40 mg/kg and 26 mg/kg. On to `NC(=CC(=O)c1ccncc1)C1CC1` [3-amino-3-cyclopropyl-1-(4-pyridyl)-2-propen-1-one], for which the “effect on body temperature of normal rats” value in series [4] (200 mg./kg., normal rats) is recorded as “not effecting the body temperature of normal rats”. For the same compound, the “lowering the yeast-elevated body temperature of rats” value in series [4] (200 mg./kg., rectal temperature 4 hours later, yeast-treated rats) was “effective in lowering the yeast-elevated body temperature of rats”. Besides, the “Ratio (Treated/Control) Measured at 2 Hours Following 200 mg./kg. Oral Dose” value in series [5] (200 mg./kg. orally, 2 hours after brewers' yeast, ratio of reaction thresholds T/C) was 1.45 and 1.39. In addition, it took a dose of 25 mg/kg to reach the 50% effect level in series [5] (Rattus norvegicus, 2 h, oral, Brewer's Yeast Pressure Pain Test) (ED50). The “No. of writhes per pair” value in series [1] is 9.4.

Regarding `c1cc(-c2cc(C3CC3)no2)ccn1` [4-(3-cyclopropyl-5-isoxazolyl)pyridine], the water solubility result in series [2] (phosphate salt) is given as “water soluble”. `c1cc(-c2cc(C3CC3)on2)ccn1` [4-(5-cyclopropyl-3-isoxazolyl)pyridine]: the water solubility entry in series [2] (citrate salt) is “slightly water soluble”. In the case of `CC(=O)Oc1ccccc1C(=O)O` [Aspirin, reference compound], the “effect on temperature of normal rats” value in series [4] (aspirin reference, dose not given, normal rats) is reported as “not effecting the temperature of normal rats”. The lowering yeast-elevated temperatures result in series [4] (aspirin reference, dose not given, yeast-treated rats) is “similarly effective in lowering yeast-elevated temperatures”.
